Source: patent publication US5198552A, “Indole derivative having antiviral, interferon-inducing and immunomodulatory effects” (priority 1991, dated 1993)
Structures can show the parent of a compound that is named as a salt. Where two headings read alike, the source gives them in different places.

Assays:
peritoneal macrophages = test: Absorbing capacity of mouse peritoneal macrophages (neutral red); type: in vivo, mice
antibody-producing cells = test: Antibody-producing cells in the spleen of mice immunized with sheep erythrocytes; type: in vivo
stem cells = test: Inactivation of stem cells with allogenic lymphocytes (graft versus host, spleen endocolonies); type: in vivo, mice
interferon [1] = settings: cell culture; cited from earlier work
interferon [2] = settings: mouse blood serum; cited from earlier work
interferon [3] = settings: human blood serum; cited from earlier work
[4] = cited from earlier work
influenza A/B viruses [5] = type: cell-based
influenza B virus = test: Activity against influenza B virus; type: cell-based; settings: hydrochloride
Protocol: The antiviral effect of the preparation against influenza A/B viruses was tested on a hen embryo fabroblast cell culture.

influenza A virus = test: Activity against influenza A virus; type: cell-based
influenza A/B viruses [6] = test: Medicinal effect on experimental influenzal pneumonia of mice induced by influenza A/B viruses; type: in vivo
influenza viruses = test: Virucidal action on influenza viruses
[7] = Maximum tolerable concentration for chick embryo fibroblasts; type: cell-based; settings: chicken
[8] = in vivo; cited from earlier work
in vivo = settings: mouse, po
[9] = 1 day after single administration
[10] = 2 day after single administration
[11] = 3 day after single administration

c1ccc([C@H]2CN3CCSC3=N2)cc1 [Levamisole, (-) 2,3,5,6,-tetrahydro-6-phenylimidazo-/2.1.b/-thiazole hydrochloride, reference compound]
Absorbing Capacity of Peritoneal Macrophages (peritoneal macrophages; [9]): 24.2 ± 4.5 mg/6 × 10^6 cells | Absorbing Capacity, percent of control (peritoneal macrophages; [9]): 116 ± 21% | Absorbing Capacity of Peritoneal Macrophages (peritoneal macrophages; [10]): 27.7 ± 3.2 mg/6 × 10^6 cells | Absorbing Capacity, percent of control (peritoneal macrophages; [10]): 121 ± 14% | Absorbing Capacity of Peritoneal Macrophages (peritoneal macrophages; [11]): 32.5 ± 2.4 mg/6 × 10^6 cells | Absorbing Capacity, percent of control (peritoneal macrophages; [11]): 135 ± 9.9% | absorbing capacity of macrophages (peritoneal macrophages; by 2-3 days after a single administration, p<0.05): 138±11% | effect on counts of macrophages washed off the peritoneal cavity (peritoneal macrophages; mouse, in vivo): no effect on counts of macrophages | immunopotentiating effect on tumor-carrier animals (antibody-producing cells; 7-17 day of tumor development, single (3 days prior to immunization) or 5-times daily): inefficient | Antibody-producing cells in spleen (% of control) (antibody-producing cells; intact mice, 5 times at a 5-day interval): 170 ± 15.1% | Antibody-producing cells in spleen (% of control) (antibody-producing cells; intact mice, during 3 days, daily): 164 ± 6.1% | immunostimulating effect on irradiated animals (antibody-producing cells; irradiated animals): of low efficacy | Antibody-producing cells in spleen (% of control) (antibody-producing cells; totally irradiated (2 Gr.), 5 times at a 5-day interval): 104 ± 6.0% | Antibody-producing cells in spleen (% of control) (antibody-producing cells; totally irradiated (2 Gr.), during 3 days, daily): 174 ± 24.0% | immunopotentiating effect on totally irradiated tumor-carrier animals (antibody-producing cells; totally irradiated tumor-carriers): also had the immunopotentiating effect | Antibody-producing cells in spleen (% of control) (antibody-producing cells; totally irradiated tumor-carriers (2 Gr.), 5 times at a 5-day interval): 402 ± 12.5% | Antibody-producing cells in spleen (% of control) (antibody-producing cells; totally irradiated tumor-carriers (2 Gr.), during 3 days, daily): 86.0 ± 35.0% | Antibody-producing cells in spleen (% of control) (antibody-producing cells; tumor-carriers, 5 times at a 5-day interval): 91 ± 14.0% | Antibody-producing cells in spleen (% of control) (antibody-producing cells; tumor-carriers, during 3 days, daily): 14 ± 23.0% | The counts of spleen endocolonies (M ± m) (stem cells; 1.25 × 10^6 lymphocytes): 2.3 ± 0.5 | The counts of spleen endocolonies (M ± m) (stem cells; 2.5 × 10^6 lymphocytes): 1.1 ± 0.2 | The counts of spleen endocolonies (M ± m) (stem cells; 5.0 × 10^6 lymphocytes): 0.7 ± 0.2 | The counts of spleen endocolonies (M ± m) (stem cells; no lymphocytes given, hydrochloride): 1.1 ± 0.3 | The counts of spleen endocolonies (M ± m) (stem cells; no lymphocytes given, listed as levamisole, hydrochloride): somewhat decreases the yield of the spleen colonies | effect on yield of spleen colonies under graft versus host conditions (stem cells; preparation 100 mg per 1 kg orally, levamisole 5 mg per 1 kg): identical but a less pronounced effect | interferon titers (interferon [1]): 80-160 U/ml | interferon titers (interferon [2]): 160-320 U/ml | interferon titers (interferon [3]): 40-80 U/ml | side-effects ([4]; in vivo): a headache, sleep disturbances, olfactory hallicinations (odour changes), allergic skin hypersensitivity, influenza-like and neurologic symptoms | toxicity ([4]; in vivo): highly toxic | agranulocytosis: decrease of neutrophile to a value ([4]; treatment as an immunomodulator): below 25%

CC(N)C12CC3CC(CC(C3)C1)C2 (stereo not shown) [Remantadine, alfa-methyl-1-adamantanemethylamine hydrochloride]
inhibition of influenza A/B virus reproduction / chemotherapeutical effect (influenza A/B viruses [5]): Inhibits the reproduc- | efficacy against influenza B virus (influenza B virus): It is inefficient against | efficacy against influenza B virus (influenza B virus; listed as remantadine): inefficient against influenza B virus | efficacy against influenza A virus (influenza A virus): efficient only against influenza A virus | medicinal (chemotherapeutical) effect on influenzal pneumonia (influenza A/B viruses [6]): Exert a medicinal effect | virucidal action on influenza viruses (influenza viruses): No virucidal action | MNTC [7]: 20 µg/mL | side-effect [8]: side-effect on a central nervous system | LD50 (in vivo): 340 mg/kg
